This test addresses T1, MMP-9 (92 kDa, gelatinase B; type IV collagenase) (Homo sapiens, UniProt P14780).
T1 construct: endogenous in cells; enzyme purified from the conditioned medium
Nature of the test: Assay of type IV collagenase inhibitors: activated MMP-9 with type IV collagenase activity kit substrate, fluorescent intensity. In kind it is biochemical. The procedure: (1) Isolation and Purification of MMP-9 (92 kDa, Gelatinase B)
Type IV collagenase (MMP-9) was purified according to the methods descrived in the following literature.
Subsequently, activated MMP-9 was obtained by treating the pro-MMP-9 with trypsin.
(2) Assay Methods of Type IV Collagenase Inhibitors
Collagenase assay was performed using the activated MMP-9 described above and the substrate supplied in the type IV collagenase activity kit (YAGAI, inc.), according to the manufacturer's protocol. The following 4 assays are performed per compound (inhibitor).
(A) substrate (type IV collagenase), enzyme (MMP-9), inhibitor
(B) substrate (type IV collagenase), inhibitor
(C) substrate (type IV collagenase), enzyme (MMP-9)
(D) substrate (type IV collagenase)
According to the manufacturer's protocol, fluorescent intensity was measured and percent inhibition was determined by the following equation.
Inhibition (%)={1−(A−B)/(C−D)}×100

Where [1] appears, read: inhibition of type IV collagenase (MMP-9), concentration at which percent inhibition reaches 50%.

Read-outs that look alike come from different tables or passages of the source.

T1 sequence (P14780 107-707 limits assumed): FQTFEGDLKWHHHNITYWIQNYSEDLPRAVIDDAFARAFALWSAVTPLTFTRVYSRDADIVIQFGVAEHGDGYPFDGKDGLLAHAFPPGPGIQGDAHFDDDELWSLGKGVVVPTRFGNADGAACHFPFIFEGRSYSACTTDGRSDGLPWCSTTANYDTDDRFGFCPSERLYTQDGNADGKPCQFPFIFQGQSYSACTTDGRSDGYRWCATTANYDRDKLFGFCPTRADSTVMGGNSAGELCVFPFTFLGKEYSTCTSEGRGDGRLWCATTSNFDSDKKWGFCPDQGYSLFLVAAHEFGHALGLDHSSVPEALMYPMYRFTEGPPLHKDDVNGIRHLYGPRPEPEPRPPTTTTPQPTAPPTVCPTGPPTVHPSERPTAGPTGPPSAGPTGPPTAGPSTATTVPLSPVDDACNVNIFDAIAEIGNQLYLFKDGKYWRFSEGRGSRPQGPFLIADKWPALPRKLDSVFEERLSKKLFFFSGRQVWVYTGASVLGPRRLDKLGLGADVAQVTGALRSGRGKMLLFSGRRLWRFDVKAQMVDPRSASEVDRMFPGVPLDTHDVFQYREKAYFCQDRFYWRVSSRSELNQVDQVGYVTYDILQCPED

Molecule `O=C(Nc1ccc(S(=O)(=O)N[C@H](Cc2c[nH]c3ccccc23)C(=O)O)cc1)c1ccc(F)cc1` [Example 185] yielded an IC50 of 42.2 nM. On the same count and under the same terms, in the case of `CC(C)[C@@H](NS(=O)(=O)c1ccc(NC(=O)c2ccc(-c3ccccc3)cc2)cc1)C(=O)O` [Example 195] it was 1100 nM; in that of `Cc1ccc(C(=O)Nc2ccc(S(=O)(=O)N[C@@H](C(=O)O)C(C)C)cc2)cc1` [Example 196], 57.3 nM. Still for that read-out and setting: in the case of `CC(C)[C@@H](NS(=O)(=O)c1ccc(NC(=O)c2ccccc2)cc1)C(=O)O` [Example 199] it was 2060 nM.

Consider `COc1ccc(C(=O)Nc2ccc(S(=O)(=O)N[C@@H](C(=O)O)C(C)C)cc2)cc1` [Example 200], for which 173 nM corresponded to half-maximal inhibition (IC50). Still for that read-out and setting: in the case of `CC(C)[C@@H](NS(=O)(=O)c1ccc(NC(=O)c2ccc([N+](=O)[O-])cc2)cc1)C(=O)O` [Example 201] it was 252 nM; in that of `COc1ccc(C(=O)Nc2ccc(S(=O)(=O)N[C@@H](C(=O)O)C(C)(C)C)cc2)cc1` [Example 203], 173 nM. With `O=C(Nc1ccc(S(=O)(=O)N[C@H](Cc2ccccc2)C(=O)O)cc1)c1ccncc1` [Example 205], the IC50 under setting [1] was found to be 4440 nM. This counts as single-digit micromolar.

The molecule `O=C(O)[C@@H](Cc1c[nH]c2ccccc12)NS(=O)(=O)c1ccc(-c2nnn(-c3ccccc3)n2)cc1` [Example 210] showed an IC50 of 24 nM. `O=C(O)C(Cc1cccc2ccccc12)NS(=O)(=O)c1ccc(-c2nnn(-c3ccccc3)n2)cc1` (centres unmarked) [Example 218] had an IC50 of 744 nM. This IC50 is about 31-fold higher than that of the molecule before. `O=Cn1cc(C[C@@H](NS(=O)(=O)c2ccc(-c3nnn(-c4ccccc4)n3)cc2)C(=O)O)c2ccccc21` [Example 219]: the IC50 was found to be 574 nM. The same measure, in the same setting: next, `CCC(C)[C@@H](NS(=O)(=O)c1ccc(-c2nnn(-c3ccc(OC)cc3)n2)cc1)C(=O)O` (some centres unmarked) [Example 222]: 78 nM. The same measure, in the same setting: next, `CC(C)[C@@H](NS(=O)(=O)c1ccc(-c2nnn(-c3ccc(Br)cc3)n2)cc1)C(=O)O` [Example 225]: 12.2 nM; `O=C(O)[C@@H](Cc1ccccc1)NS(=O)(=O)c1ccc(-c2nnn(-c3ccc(Br)cc3)n2)cc1` [Example 228]: 106 nM.

Consider `O=C(O)[C@@H](Cc1ccccc1)NS(=O)(=O)c1ccc(-c2nnn(-c3ccc([N+](=O)[O-])cc3)n2)cc1` [Example 230], for which the IC50 was 281 nM. The molecule `O=C(O)[C@@H](Cc1ccccc1)NS(=O)(=O)c1ccc(-c2nnn(-c3ccc(F)cc3)n2)cc1` [Example 231] had an IC50 of 197 nM. Same read-out and setting: in the case of `O=C(O)[C@@H](Cc1ccccc1)NS(=O)(=O)c1ccc(-c2nnn(-c3ccc(Cl)cc3)n2)cc1` [Example 232] it was 144 nM. `Cc1ccc(-n2nnc(-c3ccc(S(=O)(=O)N[C@H](Cc4ccccc4)C(=O)O)cc3)n2)cc1` [Example 233]: under setting [1], the IC50 was 86.4 nM. In turn, `COc1ccc(-n2nnc(-c3ccc(S(=O)(=O)N[C@H](Cc4ccccc4)C(=O)O)cc3)n2)cc1` [Example 234] had an IC50 of 153 nM. The same measure, in the same setting: next, `N#Cc1ccc(-n2nnc(-c3ccc(S(=O)(=O)N[C@H](Cc4ccccc4)C(=O)O)cc3)n2)cc1` [Example 235]: 265 nM.

As to `Cc1ccc(-n2nnc(-c3ccc(S(=O)(=O)N[C@H](Cc4c[nH]c5ccccc45)C(=O)O)cc3)n2)cc1` [Example 241], half-maximal inhibition (IC50) was put at 13.1 nM. The molecule `Cc1ccc(-n2nnc(-c3ccc(S(=O)(=O)N[C@@H](C(=O)O)C(C)C)cc3)n2)cc1` [Example 242] displayed an IC50 of 23.9 nM. This IC50 is about 1.8-fold higher than that of the molecule before.

In the case of `CC(C)[C@@H](NS(=O)(=O)c1ccc(-c2nnn(-c3ccc(F)cc3)n2)cc1)C(=O)O` [Example 243], half-maximal inhibition (IC50) was put at 52.9 nM. `CSc1ccc(-n2nnc(-c3ccc(S(=O)(=O)N[C@@H](C(=O)O)C(C)C)cc3)n2)cc1` [Example 245]: the IC50 under setting [1] was found to be 5.9 nM.

Molecule `CSc1ccc(-n2nnc(-c3ccc(S(=O)(=O)N[C@H](Cc4ccccc4)C(=O)O)cc3)n2)cc1` [Example 246] returned an IC50 of 10.8 nM. That is a double-digit nanomolar value. The same measure, in the same setting: next, `CSc1ccc(-n2nnc(-c3ccc(S(=O)(=O)N[C@H](Cc4c[nH]c5ccccc45)C(=O)O)cc3)n2)cc1` [Example 247]: 3.5 nM.

The IC50 is the midpoint of a concentration-inhibition curve. Higher therefore signals lower potency.

(Values after patent US6441021B1, “Sulfonated amino acid derivatives and metalloproteinase inhibitors containing the same” (Shionogi & Co., Ltd., priority 1996, dated 2002).)
